Experimental findings from patent US20220125348A1, “DETECTION OF INTERFERENT IN ANALYTE SENSING” (MEDTRONIC MINIMED, INC., priority 2020, published 2022) are described below.

The nature of this series: in vivo study of the concentration of acetaminophen in plasma and in interstitial fluid over time (FIG. 8). From the text: FIG. 8 illustrates an in vivo study of the concentration of acetaminophen in plasma and in interstitial fluid over time;
FIG. 8 further illustrates acetaminophen measured in concentration in vivo in plasma, at line 82, and in interstitial fluid, at line 84.

Each structure is given as a SMILES string.

For the molecule `CC(=O)Nc1ccc(O)cc1` [acetaminophen], the “measured acetaminophen concentration in interstitial fluid compared with plasma” value is listed as “less than that of plasma”. The “time acetaminophen is present in interstitial fluid” value (interstitial fluid) is “over six”. For the same molecule, the “time acetaminophen is present in plasma” value (plasma) is “over six”.
